Measured values: patent US4689345A, “Oxygenated alkyl substituted bicyclo alkanes” (CBD Corporation, priority 1986, dated 1987)
“Also recorded” adds a separate entry of the source.

How the values were obtained:
[1] = molecular target: T1, androgen receptor site (Homo sapiens, UniProt P10275); assay: % inhibition of labelled androgen (3H DHT) binding to caesarean section skin from hirsute patients
T1 construct: the test utilizing caesarean section skin from hirsute patients; from tissue; host or cells: caesarean section skin from hirsute patients
T1 sequence (P10275 1-920): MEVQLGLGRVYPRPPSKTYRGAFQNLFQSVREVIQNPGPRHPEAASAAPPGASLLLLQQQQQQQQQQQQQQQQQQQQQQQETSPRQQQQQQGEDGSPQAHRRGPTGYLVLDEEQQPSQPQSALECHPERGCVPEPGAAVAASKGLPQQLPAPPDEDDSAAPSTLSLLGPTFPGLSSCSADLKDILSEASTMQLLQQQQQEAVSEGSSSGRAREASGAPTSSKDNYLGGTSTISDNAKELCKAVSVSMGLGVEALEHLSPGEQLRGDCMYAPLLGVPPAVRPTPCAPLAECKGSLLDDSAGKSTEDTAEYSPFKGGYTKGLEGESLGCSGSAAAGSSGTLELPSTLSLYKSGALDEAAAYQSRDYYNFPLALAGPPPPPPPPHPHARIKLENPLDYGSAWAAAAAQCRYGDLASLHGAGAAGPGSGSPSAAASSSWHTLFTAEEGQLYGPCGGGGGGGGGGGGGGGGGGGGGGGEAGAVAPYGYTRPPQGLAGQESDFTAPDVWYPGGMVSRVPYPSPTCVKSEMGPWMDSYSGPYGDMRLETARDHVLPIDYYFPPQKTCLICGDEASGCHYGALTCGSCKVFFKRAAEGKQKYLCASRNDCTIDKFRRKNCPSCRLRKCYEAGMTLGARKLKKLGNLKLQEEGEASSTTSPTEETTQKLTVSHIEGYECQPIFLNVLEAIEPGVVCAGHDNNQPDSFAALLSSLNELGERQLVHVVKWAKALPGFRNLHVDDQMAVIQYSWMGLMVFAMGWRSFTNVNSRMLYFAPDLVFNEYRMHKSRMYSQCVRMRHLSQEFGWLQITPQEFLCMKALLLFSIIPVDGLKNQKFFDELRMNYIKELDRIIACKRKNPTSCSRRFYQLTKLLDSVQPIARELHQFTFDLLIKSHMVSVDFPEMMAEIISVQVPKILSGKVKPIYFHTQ

[2] = test system: human fibroblast cells; assay: Elastin production by fibroblast cells; type: cell-based; conditions: for formation of elastin: Example 45; for increase in elastin production over control cells: treated vs control (non-treated) fibroblast cells
Source text: (§1) Experiments generally following the methodology of Boote et al., Biochimica et Biophysica Acta, Volume 607, pages 145-160 (1980), have shown that while control human fibroblast cells have copious collagen production, treatment with the compounds of the invention provides human fibroblast cells with suppressed collagen production and with an about 30% increase in elastin production over control cells.
(§2) Wrinkling of the skin involves the decreased formation of elastin and the increased formation of collagen by supporting cells, predominantly the fibroblasts.

[3] = test system: human fibroblast cells; assay: Collagen production by fibroblast cells; type: cell-based; conditions: treated vs control cells
Source text: as §1, §2

[4] = test system: Fusarium; assay: Effects on Fusarium growth and fungal hormone production; type: cell-based
Source text: It is also known that these fungi elaborate zearalenone and zearalanol which are toxic substances to livestock ingesting the grain rotted by them. Ingestion of these toxic substances is known to influence the prepubertal development of pigs (Berger et al., Journal of Animal Science, Vol. 53, pages 1559-1564 (1981). Zearalenone and zearalanol also affect milk production, breeding and pregnancy in such large livestock animals as pigs, cows and horses (Young et al., Journal of Animal Science, Vol. 54, pages 976-982). The Fusarium family of fungi also adversely affect chicken, turkey and other poultry animal populations (Allen et al., Poultry Science, Vol. 60, pages 124-131 (1981); Mirocha et al., Poultry Science, Vol. 60, pages 19-25 (1981)). Because of the importance of livestock production, the effect of the anti-androgens of this invention on these fungi was extensively studied. There is no currently available satisfactory treatment for the fungi nor the fungal hormones they elaborate (i.e., zearalenone and zearalanol).

[5] = test system: estrogen receptor; assay: Fungal estrogen receptor inhibition, Fusarium; type: binding
[6] = test system: progesterone receptor; assay: Progesterone receptor inhibition, Torulopsis; type: binding
[7] = test system: androgen receptor; assay: Androgen receptor inhibition, Sporotrichum; type: binding
[8] = test system: progesterone receptor; assay: Progesterone receptor inhibition, Pseudomonas testosteroni; type: binding
[9] = molecular target: T2, androgen receptor sites (Homo sapiens, UniProt P10275); assay: Anti-androgenic action in similar tests
T2 construct: other tests of the document use human skin, keloid and fibroblasts with 3H-DHT
Source text: The test procedures set forth in Examples 54-58 may be repeated with the compound 2-(5-methoxyhept-1-yl)bicyclo[3.3.0]octan-7-one {hexahydro-4-(5-methoxyheptyl)-2(1H)-pentalenone}.

[10] = molecular target: T3, androgen receptor (Homo sapiens, UniProt P10275); assay: In vitro inhibition of the androgen receptor-DHT interaction; type: binding; design: from tissue; conditions: for % of Androgen Receptor Inhibition: DHT; for Femtamoles of DHT Bound/mg Protein: corrected for nonspecific binding, 0:1 = 78
T3 sequence (P10275 1-920): T1 sequence (P10275 1-920)

[11] = molecular target: T3, androgen receptor; assay: In vitro inhibition of the androgen receptor-testosterone interaction; type: binding; design: from tissue; conditions: for inhibition of the androgen receptor site: 10 molecules of compound for one molecule of testosterone; for Femtamoles of Testosterone Bound/mg Protein / % of Androgen Receptor Inhibition: ratio of compound to androgen 20:1; for Femtamoles of Testosterone Bound/mg Protein: corrected for nonspecific binding, 0:1 = 3.6; for % of Androgen Receptor Inhibition: testosterone
Procedure: Competitive inhibition experiments were performed using compound IV in the second technique described above.

[12] = test system: androgen receptor; assay: Androgen receptor inhibition, Saccharomyces cerevisiae strains; conditions: DHT:anti-androgen 1:1,000
[13] = test system: estrogen receptor; assay: Estrogen receptor inhibition, Saccharomyces cerevisiae strains; conditions: DHT:anti-androgen 1:1,000
[14] = test system: collagen:elastin formation; assay: Collagen synthesized and elastic increase compared to control, by patient; type: cell-based, human; conditions: anti-androgen to DHT 1,000:1
[15] = ratio of compound to androgen 10:1
[16] = ratio of compound to androgen 100:1
[17] = ratio of compound to androgen 1000:1
[18] = ratio of compound to androgen 10000:1

Structure (SMILES): CCC(O)CCCCC1CCC2CC(=O)CC12 (stereo not shown) [Compound IV]
- % Inhibition of 3H Androgen Binding to Skin [1, 15]: 25%
- % Inhibition of 3H Androgen Binding to Skin [1, 16]: 51%
- % Inhibition of 3H Androgen Binding to Skin [1, 17]: 75%
- % Inhibition of 3H Androgen Binding to Skin [1, 18]: 83%
- formation of elastin [2]: massive observable increase in the formation of elastin
- increase in elastin production over control cells [2]: ~30%
- collagen production/formation [3]: decreased
- collagen production/formation ([3]; listed as compound IV): decrease in collagen production
- inhibitory effects on species of Fusarium [4]: valuable inhibitory effects
- colony counts ([4]; Fusarium): markedly decreased
- growth rate ([4]; Fusarium): markedly decreased
- production of zearalanol ([4]; Fusarium): markedly decreased
- production of zearalenone ([4]; Fusarium): markedly decreased
- % Estrogen Receptor Inhibition ([5]; fungal hormone Zeralanol): 0%
- % Estrogen Receptor Inhibition ([5]; fungal hormone Zeralenone): 0%
- % Progesterone Receptor Inhibition [6]: 6%
- % Androgen Receptor Inhibition [7]: 29%
- % Progesterone Receptor Inhibition ([8]; strain 1): 0%
- % Progesterone Receptor Inhibition ([8]; strain 2): 0%
- % Progesterone Receptor Inhibition ([8]; strain 3): 0%
- % Progesterone Receptor Inhibition ([8]; strain 4): 0%
- anti-androgenic action [9]: anti-androgenic compound operating in the same manner
- % of Androgen Receptor Inhibition [10, 15]: 25.6%
- % of Androgen Receptor Inhibition [10, 16]: 41.0%
- Femtamoles of DHT Bound/mg Protein [10, 15]: 58 Femtamoles/mg Protein
- Femtamoles of DHT Bound/mg Protein [10, 16]: 46 Femtamoles/mg Protein
- inhibition of the androgen receptor site [11]: inhibited the androgen receptor site
- Femtamoles of Testosterone Bound/mg Protein [11]: 2.0 Femtamoles/mg Protein
- % of Androgen Receptor Inhibition [11]: 43.7%
- % Androgen Receptor Inhibition ([12]; strain 1): 16%
- % Androgen Receptor Inhibition ([12]; strain 2): 37%
- % Androgen Receptor Inhibition ([12]; strain 3): 92%
- % Androgen Receptor Inhibition ([12]; strain 4): 76%
- % Androgen Receptor Inhibition ([12]; strain 5): 39%
- % Androgen Receptor Inhibition ([12]; strain 6): 59%
- % Androgen Receptor Inhibition ([12]; strain 7): 87%
- % Estrogen Receptor Inhibition ([13]; strain 1): 0%
- % Estrogen Receptor Inhibition ([13]; strain 2): 0%
- % Estrogen Receptor Inhibition ([13]; strain 3): 0%
- % Estrogen Receptor Inhibition ([13]; strain 4): 0%
- % Estrogen Receptor Inhibition ([13]; strain 5): 0%
- % Estrogen Receptor Inhibition ([13]; strain 6): 0%
- % Estrogen Receptor Inhibition ([13]; strain 7): 0%

Structure (SMILES): CCC(CCCCC1CCC2CC(=O)CC12)OC (stereo not shown) [Compound V, 2-(5-Methoxyhept-1-yl)bicyclo[3.3.0]octan-7-one]
- % Inhibition of 3H Androgen Binding to Skin [1, 15]: 32%
- % Inhibition of 3H Androgen Binding to Skin [1, 16]: 55%
- % Inhibition of 3H Androgen Binding to Skin [1, 17]: 80%
- % Inhibition of 3H Androgen Binding to Skin [1, 18]: 86%
- formation of elastin [2]: massive observable increase in the formation of elastin
- increase in elastin production over control cells [2]: ~30%
- collagen production/formation [3]: decrease in collagen production; also recorded: decreased
- Fold Elastic Increase Compared to Control ([14]; patient 1): 1.4 Fold
- Fold Elastic Increase Compared to Control ([14]; patient 2): 4.7 Fold
- Fold Elastic Increase Compared to Control ([14]; patient 3): 2.0 Fold
- Fold Elastic Increase Compared to Control ([14]; patient 4): 4.0 Fold
- Fold Elastic Increase Compared to Control ([14]; patient 5): 6.0 Fold
- Fold Elastic Increase Compared to Control ([14]; patient 6): 2.0 Fold
- Fold Elastic Increase Compared to Control ([14]; patient 7): 3.0 Fold
- Fold Elastic Increase Compared to Control ([14]; patient 8): 3.0 Fold
- Fold Elastic Increase Compared to Control ([14]; patient 9): 4.0 Fold
- Fold Elastic Increase Compared to Control ([14]; patient 10): 6.0 Fold
- Fold Elastic Increase Compared to Control ([14]; patient 11): 3.0 Fold
- inhibitory effects on species of Fusarium [4]: valuable inhibitory effects
- anti-androgenic action [9]: anti-androgenic compound operating in the same manner
- % of Androgen Receptor Inhibition [10, 15]: 43.6%
- % of Androgen Receptor Inhibition [10, 16]: 51.3%
- Femtamoles of DHT Bound/mg Protein [10, 15]: 44 Femtamoles/mg Protein
- Femtamoles of DHT Bound/mg Protein [10, 16]: 38 Femtamoles/mg Protein
- inhibition of the androgen receptor site [11]: inhibited the androgen receptor site
- Femtamoles of Testosterone Bound/mg Protein [11]: 1.9 Femtamoles/mg Protein
- % of Androgen Receptor Inhibition [11]: 47.0%
